Measurements taken from article PMC5599605, “Production and Characteristics of a Novel Xylose- and Alkali-tolerant GH 43 β-xylosidase from Penicillium oxalicum for Promoting Hemicellulose Degradation” (Scientific Reports, 2017).

What was measured:
[1] = target: T1, Xyl43 (Penicillium oxalicum, UniProt S7ZRR2); assay: pNPX hydrolysis, residual activity; format: biochemical; conditions: pNPX 1 mg/ml, pH 7.0, 50 °C, 30 min; D or L not stated
T1 construct: gene PDE_06306; full-length, 348 residues, no native signal peptide; alpha-factor secretion signal, C-terminal His6 tag kept; Pichia pastoris X-33 (pPICZalphaA)

[2] = target: T1, Xyl43; assay: pNPX hydrolysis, Dixon plot; format: biochemical; conditions: substrate pNPX 0.5 and 1 mg/ml, pH 7.0, 50 °C; end product; described as uncompetitive; Table 1 prints 28.9
[3] = substrate: O=[N+]([O-])c1ccc(O[C@@H]2OC[C@@H](O)[C@H](O)[C@H]2O)cc1; assay: p-nitrophenol release, Lineweaver-Burk plot; format: biochemical, Penicillium oxalicum; conditions: pH 7.0, 50 °C, 5 min, no xylose

OC1OC[C@H](O)[C@H](O)[C@H]1O (stereo partly drawn) [arabinose]
% of initial activity at 20 mM [1]: 88.7%

OC1OC[C@@H](O)[C@H](O)[C@H]1O (stereo partly drawn) [xylose]
Ki [2]: 28.1 mM

B1: Xyl43 (Penicillium oxalicum 114-2) (protein)
chain: MSSSTSSAPRPDPKPLVTHLYTADPSAHVFNNKIYIYPSHDRETDIAFNDNGDQYDMTDYHVFSMDAIDGPVTDSGVVLSAADVPWVSKQMWAPDAATKNGKYYLFFPARDHEGIFRIGVAVSDSPMGPFAPEKSYIPGSYSIDPAVFVDTDDSAYLYFGGIWGGQLQCWERADGSASASADPQMNGLVFNKSKSGPQEPSGAGVPALCPRVGQLSDDMLTFVSPPRELQILAPETGEPLAADDHERRFFEAAWMHKYKGKYYFSYSTGDSHYLVYATGDSPWGPFTYQGRILEPVLGWTTHHSIVEFQGKWYLFYHDCELSKGVDHLRSVKVREIVYDEEDKIHLA
notes: full-length, 348 residues, no native signal peptide; alpha-factor secretion signal, C-terminal His6 tag kept; Pichia pastoris X-33 (pPICZalphaA)
Km [3]: 4.05 mM
